Columns and labels:
[1] = target: T1, α1A Human Adrenergic Receptor (Homo sapiens, UniProt P25100); test: Radioligand binding, [3H]prazosin, cloned human α1A adrenergic receptor; details: pKi alpha-1 1a, [3H]prazosin, cloned human α1A receptor, LM(tk−) cell membranes
T1 construct: The entire coding region of α1A (1719 bp); expressed in transfected cells
T1 sequence (P25100 1-572): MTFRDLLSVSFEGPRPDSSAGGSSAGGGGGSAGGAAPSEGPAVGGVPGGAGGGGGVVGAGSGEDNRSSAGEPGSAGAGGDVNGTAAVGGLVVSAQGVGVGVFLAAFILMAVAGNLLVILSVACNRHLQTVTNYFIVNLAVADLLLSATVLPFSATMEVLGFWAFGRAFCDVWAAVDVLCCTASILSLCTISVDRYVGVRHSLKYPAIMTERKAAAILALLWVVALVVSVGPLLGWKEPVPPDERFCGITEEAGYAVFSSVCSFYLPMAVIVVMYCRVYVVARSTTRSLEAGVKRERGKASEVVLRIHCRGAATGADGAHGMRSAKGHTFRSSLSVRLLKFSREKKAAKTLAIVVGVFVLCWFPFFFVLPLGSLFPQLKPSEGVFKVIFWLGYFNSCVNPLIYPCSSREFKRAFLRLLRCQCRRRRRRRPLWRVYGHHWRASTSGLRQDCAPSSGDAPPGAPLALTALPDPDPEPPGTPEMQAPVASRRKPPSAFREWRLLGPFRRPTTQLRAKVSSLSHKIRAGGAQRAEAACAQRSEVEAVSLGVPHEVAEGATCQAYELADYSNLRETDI
How it was run: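 [3H]prazosin 0.5 nM, transfected LM(tk−) membranes, 37° C, 20 min. Buffer 50 mM Tris-HCl/1 mM MgCl2/0.1% ascorbate, pH 7.5. NSB: 10 μM phentolamine. Filtration harvest.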

[2] = target: T2, α1B Human Adrenergic Receptor (Homo sapiens, UniProt P35368); test: Radioligand binding, [3H]prazosin, cloned human α1B adrenergic receptor; details: pKi alpha-1 1b, cloned human α1B receptor, LM(tk−) cell membranes
T2 construct: The entire coding region of α1B (1563 bp); expressed in transfected cells
T2 sequence (P35368 1-520): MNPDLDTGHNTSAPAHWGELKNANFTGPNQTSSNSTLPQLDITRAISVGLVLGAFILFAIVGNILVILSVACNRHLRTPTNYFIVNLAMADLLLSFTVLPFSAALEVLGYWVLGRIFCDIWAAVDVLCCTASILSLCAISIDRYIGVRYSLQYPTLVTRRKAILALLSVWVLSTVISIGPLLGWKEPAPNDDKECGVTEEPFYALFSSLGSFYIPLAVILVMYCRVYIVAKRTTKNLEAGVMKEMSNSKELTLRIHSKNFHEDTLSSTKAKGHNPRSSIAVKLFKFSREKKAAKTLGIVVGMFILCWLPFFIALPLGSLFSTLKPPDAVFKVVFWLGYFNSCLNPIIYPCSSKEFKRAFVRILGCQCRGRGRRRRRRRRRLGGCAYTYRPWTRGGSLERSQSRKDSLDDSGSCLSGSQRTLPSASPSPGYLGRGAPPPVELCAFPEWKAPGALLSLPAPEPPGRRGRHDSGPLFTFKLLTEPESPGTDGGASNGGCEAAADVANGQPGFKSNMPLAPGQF
How it was run: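 [3H]prazosin (0.5 nM) binding was run for 20 min at 37° C in pH 7.5 Tris/MgCl2/ascorbate buffer on membranes of LM(tk−) cells stably expressing the cloned receptor. Filtration through GF/B ended the reaction; 10 μM phentolamine gave nonspecific binding.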

α2A receptor = target: T3, α2A receptor (Homo sapiens, UniProt P08913); test: Competition binding, [3H]rauwolscine, human α2A receptor; details: [3H]rauwolscine, human α2A receptor, LM(tk−) cells; read-out: pKi alpha-2 2a (converted)
T3 construct: host or cells: LM(tk-) cells, line L-α2A
T3 sequence (P08913 1-465): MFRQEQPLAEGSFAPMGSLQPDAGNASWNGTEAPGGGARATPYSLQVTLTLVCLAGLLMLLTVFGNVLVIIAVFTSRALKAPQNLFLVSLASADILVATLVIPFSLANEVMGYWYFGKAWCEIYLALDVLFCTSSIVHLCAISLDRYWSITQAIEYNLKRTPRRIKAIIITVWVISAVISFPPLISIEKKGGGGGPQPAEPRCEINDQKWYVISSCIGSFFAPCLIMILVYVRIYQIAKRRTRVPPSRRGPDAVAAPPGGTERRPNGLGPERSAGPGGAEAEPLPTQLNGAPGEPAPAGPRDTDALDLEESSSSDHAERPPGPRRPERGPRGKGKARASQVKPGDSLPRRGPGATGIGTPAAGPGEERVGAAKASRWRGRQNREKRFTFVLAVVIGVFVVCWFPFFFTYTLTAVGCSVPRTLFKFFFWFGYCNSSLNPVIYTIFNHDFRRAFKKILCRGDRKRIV
How it was run: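 Lysates of LM(tk−) cells stably expressing human α2A, α2B or α2C receptors in 25 mM glycylglycine pH 7.6. Equilibrium competition against 0.5 nM [3H]rauwolscine, with 10 μM phentolamine defining nonspecific binding. Bound ligand separated by GF/B filtration.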

Row | Structure (SMILES) | Ki [1] [nM] | Ki [2] [nM] | Ki (α2A receptor) [nM]
1 | CCC1=C(C(=O)NCCCN2CCC(c3ccccc3)(c3ccccc3)CC2)C(c2ccc([N+](=O)[O-])cc2)C(C(N)=O)=C(COCCN=[N+]=[N-])N1 (stereo not drawn) [Example 149, 2-((2-Azidoethyl)oxy)methyl-3-carboxamido-6-ethyl-1,4-dihydro-4-(4-nitro) phenyl-5-(N-(3-(4,4-diphenylpiperidin-1-yl)propyl))carboxamidopyridine] | 324 | 245 | 501
2 | CCC1=C(C(=O)NCCCN2CCC(c3ccccc3)(c3ccccc3)CC2)C(c2ccc([N+](=O)[O-])cc2)C(C(=O)NC)=C(COCCN=[N+]=[N-])N1 (stereo not drawn) [Example 151, 2-((2-Azidoethyl)oxy)methyl-6-ethyl-1,4-dihydro-3-(N-methyl)carboxamido-4-(4-nitro)phenyl-5-(N-(3-(4,4-diphenylpiperidin-1-yl)propyl))carboxamidopyridine] | 631 | 355 | 562
3 | CC1=C(C(=O)NCCCN2CCC(c3ccccc3)(c3ccccc3)CC2)C(c2ccc([N+](=O)[O-])cc2)C(C(=O)NC(C)C)=C(C)N1 (stereo not drawn) [Example 156, 1,4-Dihydro-3-(N-isopropyl) carboxamido-2,6-dimethyl-4-(4-nitrophenyl)-5-{N-[3-(^414-diphenylpiperidin-1-yl)propyl]}carboxamidopyridine] | 1320 | 676 | 316
4 | CC1=C(C(=O)NCCCN2CCC(c3ccccc3)(c3ccccc3)CC2)C(c2ccc([N+](=O)[O-])cc2)C(C(=O)OCCC#N)=C(C)N1 (stereo not drawn) [Example 160] | 251 | 138 | 457
5 | CNC(=O)C1=C(C)NC(C)=C(C(=O)NCCCN2CCC(O)(c3ccccc3)CC2)C1c1ccc([N+](=O)[O-])cc1 (stereo not drawn) [Example 162, 1,4-Dihydro-3-{N-[3-(4-hydroxy-4-phenylpiperidin-1-yl)propyl]}carboxamido-2,6-dimethyl-5-(N-methyl)carboxamido-4-(4-nitrophenyl)pyridine] | 1070 | 257 | 631
